These results are taken from patent US5639777A, “1,4,5-triphenyl pyrazolyl compounds for the treatment of inflammation and inflammation-related disorders” (G.D. Searle & Co., priority 1996, dated 1997).

For data set [1], the system named is carrageenan-induced foot edema in rats. Briefly: Rat Carrageenan Foot Pad Edema Test. In kind it is in vivo, Male Sprague-Dawley rats. The following applies: @ 10 mg/kg body weight; oral; foot volume three hours after carrageenan injection. As to the method: The carrageenan foot edema test was performed with materials, reagents and procedures essentially as described by Winter, et al., (Proc. soc. Exm. Biol. Med., 111, 544 (1962)). Male Sprague-Dawley rats were selected in each group so that the average body weight was as close as possible. Rats were fasted with free access to water for over sixteen hours prior to the test. The rats were dosed orally (1 mL)with compounds suspended in vehicle containing 0.5% methylcellulose and 0.025% surfactant, or with vehicle alone. One hour later a subplantar injection of 0.1 mL of 1% solution of carrageenan/sterile 0.9% saline was administered and the volume of the injected foot was measured with a displacement plethysmometer connected to a pressure transducer with a digital indicator. Three hours after the injection of the carrageenan, the volume of the foot was again measured. The average foot swelling in a group of drug-treated animals was compared with that of a group of placebo-treated animals and the percentage inhibition of edema was determined (Otterness and Bliven, Laboratory Models for Testing NSAIDs, in Non-steroidal Anti-Inflammatory Drugs, (J. Lombardino, ed. 1985)).
(In general: In the carrageenan paw model, swelling and tenderness develop within hours.)

The conditions of data set [2]: compared with other common anti-inflammatory agents; cited from earlier work.

Each structure is given as a SMILES string.

Consider `CS(=O)(=O)c1ccc(-c2c(-c3ccc(F)cc3)c(C(F)(F)F)nn2-c2ccccc2)cc1` [Example 1, 4-(4-Fluorophenyl)-5-[4-(methylsulfonyl)phenyl]-1-phenyl-3-(trifluoromethyl)pyrazole], for which, in data set [1], the “% Inhibition (rat paw edema)” value was determined as 20%. In the case of `O=C(O)Cc1c(-c2ccccc2)c(-c2ccccc2)nn1-c1ccccc1` [Isofezolac, 1,3,4-triphenyl-1H-pyrazole-5-acetic acid], in data set [2], the ulcerogenic entry was “as ulcerogenic as other common anti-inflammatory agents”.
